# Experimental data as given in patent publication US20250282794A1 (CURADEV PHARMA LTD, priority 2022, published 2025).
# Target: recombinant full length HPK-1 enzyme (Homo sapiens (Human), UniProt Q92918)
# Assay: HPK-1 biochemical enzyme assay (ADP-Glo kinase inhibition)
# Conditions: recombinant full length HPK-1 6.8 nM, 10 μM ATP, 12.5 μM MBP, 30 mins at 25° C.
# How it was run: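 ADP-Glo readout of ADP formed after a 30 min, 25° C. reaction of 6.8 nM full-length HPK-1 with swine myelin basic protein (12.5 μM) and ATP (10 μM) in Tris pH 7.4 buffer with MgCl2, DTT and BSA. Ten compound concentrations tested; percent inhibition set against vehicle (0%) and no-enzyme (100%) controls gave IC50.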
# recombinant full length HPK-1 enzyme, sequence (Q92918 whole entry, species assumed): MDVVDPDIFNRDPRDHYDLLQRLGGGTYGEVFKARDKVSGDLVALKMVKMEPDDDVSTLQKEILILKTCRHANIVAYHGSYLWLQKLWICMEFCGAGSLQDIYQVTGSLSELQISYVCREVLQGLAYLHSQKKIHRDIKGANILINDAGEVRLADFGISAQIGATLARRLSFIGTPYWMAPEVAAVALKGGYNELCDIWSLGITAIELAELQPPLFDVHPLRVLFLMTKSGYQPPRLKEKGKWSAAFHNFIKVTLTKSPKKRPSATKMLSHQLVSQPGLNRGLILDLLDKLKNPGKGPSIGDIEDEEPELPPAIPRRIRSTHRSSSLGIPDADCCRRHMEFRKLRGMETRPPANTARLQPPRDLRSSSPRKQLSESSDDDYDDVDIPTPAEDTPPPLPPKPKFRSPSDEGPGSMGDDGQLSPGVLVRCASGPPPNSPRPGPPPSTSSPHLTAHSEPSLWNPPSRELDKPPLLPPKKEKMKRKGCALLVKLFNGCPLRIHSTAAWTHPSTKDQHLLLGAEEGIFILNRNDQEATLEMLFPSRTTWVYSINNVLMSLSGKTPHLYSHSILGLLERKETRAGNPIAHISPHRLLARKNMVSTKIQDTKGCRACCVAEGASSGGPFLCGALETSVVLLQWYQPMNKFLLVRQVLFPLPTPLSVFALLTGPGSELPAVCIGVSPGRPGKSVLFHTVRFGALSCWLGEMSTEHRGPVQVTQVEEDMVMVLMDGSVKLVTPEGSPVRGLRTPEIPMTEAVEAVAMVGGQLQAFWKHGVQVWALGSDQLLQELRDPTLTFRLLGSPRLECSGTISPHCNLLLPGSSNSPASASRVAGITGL
row,Compound,IC50 [nM]
1,"CO[C@@H](C)C(=O)N1CCN(c2ccc(NC(=O)c3c(Nc4cnc5c(c4C)NCCO5)cc[nH]c3=O)cc2)CC1 [Example 350, (S)-N-(4-(4-(2-methoxypropanoyl)piperazin-1-yl)phenyl)-4-((8-methyl-2,3-dihydro-1H-pyrido[2,3-b][1,4]oxazin-7-yl)amino)-2-oxo-1,2-dihydropyridine-3-carboxamide]",≤ 10
2,"CO[C@H](C)C(=O)N1CCN(c2ccc(NC(=O)c3c(Nc4cnc5c(c4C)NCCO5)cc[nH]c3=O)cc2)CC1 [Example 353, (R)-N-(4-(4-(2-methoxypropanoyl)piperazin-1-yl)phenyl)-4-((8-methyl-2,3-dihydro-1H-pyrido[2,3-b][1,4]oxazin-7-yl)amino)-2-oxo-1,2-dihydropyridine-3-carboxamide]",10 to 100
3,"CNC(C)C(=O)N1CCN(c2ccc(NC(=O)c3c(Nc4cnc5c(c4C)NCCO5)cc[nH]c3=O)cc2)CC1 (stereo not shown) [Example 354, 4-((8-methyl-2,3-dihydro-1H-pyrido[2,3-b][1,4]oxazin-7-yl)amino)-N-(4-(4-(methylalanyl)piperazin-1-yl)phenyl)-2-oxo-1,2-dihydropyridine-3-carboxamide]",10 to 100
4,"Cc1c(Nc2cc[nH]c(=O)c2C(=O)Nc2ccc(N3CCN(C(=O)C4(C)CC4)CC3)cc2)cnc2c1NCCO2 [Example 355, 4-((8-methyl-2,3-dihydro-1H-pyrido[2,3-b][1,4]oxazin-7-yl)amino)-N-(4-(4-(1-methylcyclopropane-1-carbonyl)piperazin-1-yl)phenyl)-2-oxo-1,2-dihydropyridine-3-carboxamide]",≤ 10
5,"Cc1c(Nc2cc[nH]c(=O)c2C(=O)Nc2ccc(N3CCN(C(=O)C4CCN(C)C4)CC3)cc2)cnc2c1NCCO2 (stereo not shown) [Example 356, 4-((8-methyl-2,3-dihydro-1H-pyrido[2,3-b][1,4]oxazin-7-yl)amino)-N-(4-(4-(1-methylpyrrolidine-3-carbonyl)piperazin-1-yl)phenyl)-2-oxo-1,2-dihydropyridine-3-carboxamide]",10 to 100
6,"Cc1c(Nc2cc[nH]c(=O)c2C(=O)Nc2ccc(N3CCN(C(=O)C(C)N(C)C)CC3)cc2)cnc2c1NCCO2 (stereo not shown) [Example 358, N-(4-(4-(dimethylalanyl)piperazin-1-yl)phenyl)-4-((8-methyl-2,3-dihydro-1H-pyrido[2,3-b][1,4]oxazin-7-yl)amino)-2-oxo-1,2-dihydropyridine-3-carboxamide]",10 to 100
7,"Cc1ccc(N2CCN(c3ccc(NC(=O)c4c(Nc5cnc6c(c5C)NCCO6)cc[nH]c4=O)cc3)CC2)cn1 [Example 363, 4-((8-Methyl-2,3-dihydro-1H-pyrido[2,3-b][1,4]oxazin-7-yl)amino)-N-(4-(4-(6-methylpyridin-3-yl)piperazin-1-yl)phenyl)-2-oxo-1,2-dihydropyridine-3-carboxamide]",10 to 100
8,"COCc1cc(N2CCN(c3ccc(NC(=O)c4c(Nc5cnc6c(c5C)NCCO6)cc[nH]c4=O)cc3)CC2)ccn1 [Example 364, N-(4-(4-(2-(methoxymethyl)pyridin-4-yl)piperazin-1-yl)phenyl)-4-((8-methyl-2,3-dihydro-1H-pyrido[2,3-b][1,4]oxazin-7-yl)amino)-2-oxo-1,2-dihydropyridine-3-carboxamide]",10 to 100
9,"Cc1c(Nc2cc[nH]c(=O)c2C(=O)Nc2ccc(N3CCN(c4ccnc(C(=O)N(C)C)c4)CC3)cc2)cnc2c1NCCO2 [Example 365, N,N-dimethyl-4-(4-(4-(4-((8-methyl-2,3-dihydro-1H-pyrido[2,3-b][1,4]oxazin-7-yl)amino)-2-oxo-1,2-dihydropyridine-3-carboxamido)phenyl)piperazin-1-yl)picolinamide]",10 to 100
10,"Cc1c(Nc2cc[nH]c(=O)c2C(=O)Nc2ccc(N3CCN(c4nccn4C)CC3)cc2)cnc2c1NCCO2 [Example 366, N-(4-(4-(1-methyl-1H-imidazol-2-yl)piperazin-1-yl)phenyl)-4-((8-methyl-2,3-dihydro-1H-pyrido[2,3-b][1,4]oxazin-7-yl)amino)-2-oxo-1,2-dihydropyridine-3-carboxamide]",≤ 10
11,"Cc1c(Nc2cc[nH]c(=O)c2C(=O)Nc2ccc(N3CCN(c4cscn4)CC3)cc2)cnc2c1NCCO2 [Example 367, 4-((8-methyl-2,3-dihydro-1H-pyrido[2,3-b][1,4]oxazin-7-yl)amino)-2-oxo-N-(4-(4-(thiazol-4-yl)piperazin-1-yl)phenyl)-1,2-dihydropyridine-3-carboxamide]",10 to 100

# More lines, now with the values ahead:
row,IC50 [nM],Compound
1,≤ 10,"CCC(=O)N1CCN(c2ccc(NC(=O)c3c(Nc4cnc5c(c4C)NCCO5)cc[nH]c3=O)cc2)C[C@@H]1C [Example 345, (S)-4-((8-methyl-2,3-dihydro-1H-pyrido[2,3-b][1,4]oxazin-7-yl)amino)-N-(4-(3-methyl-4-propionylpiperazin-1-yl)phenyl)-2-oxo-1,2-dihydropyridine-3-carboxamide]"
2,≤ 10,"COCCN1CCN(c2ccc(NC(=O)c3c(Nc4cnc5c(c4C)NCCO5)cc[nH]c3=O)cc2)C[C@@H]1C [Example 346, (S)-N-(4-(4-(2-methoxyethyl)-3-methylpiperazin-1-yl)phenyl)-4-((8-methyl-2,3-dihydro-1H-pyrido[2,3-b][1,4]oxazin-7-yl)amino)-2-oxo-1,2-dihydropyridine-3-carboxamide]"
3,≤ 10,"CCC(=O)N1CCN(c2ccc(NC(=O)c3c(Nc4cnc5c(c4C)NCCO5)cc[nH]c3=O)cc2)C[C@H]1C [Example 347, (R)-4-((8-methyl-2,3-dihydro-1H-pyrido[2,3-b][1,4]oxazin-7-yl)amino)-N-(4-(3-methyl-4-propionylpiperazin-1-yl)phenyl)-2-oxo-1,2-dihydropyridine-3-carboxamide]"
4,≤ 10,"COCCN1CCN(c2ccc(NC(=O)c3c(Nc4cnc5c(c4C)NCCO5)cc[nH]c3=O)cc2)C[C@H]1C [Example 348, (R)-N-(4-(4-(2-methoxyethyl)-3-methylpiperazin-1-yl)phenyl)-4-((8-methyl-2,3-dihydro-1H-pyrido[2,3-b][1,4]oxazin-7-yl)amino)-2-oxo-1,2-dihydropyridine-3-carboxamide]"
5,≤ 10,"Cc1c(Nc2cc[nH]c(=O)c2C(=O)Nc2ccc(N3CCN(C(=O)C(C)C)[C@H](C)C3)cc2)cnc2c1NCCO2 [Example 349, (R)-N-(4-(4-isobutyryl-3-methylpiperazin-1-yl)phenyl)-4-((8-methyl-2,3-dihydro-1H-pyrido[2,3-b][1,4]oxazin-7-yl)amino)-2-oxo-1,2-dihydropyridine-3-carboxamide]"
6,10 to 100,"COCC(C)N1CCN(c2ccc(NC(=O)c3c(Nc4cnc5c(c4C)NCCO5)cc[nH]c3=O)cc2)CC1 (stereo not shown) [Example 351, N-(4-(4-(1-methoxypropan-2-yl)piperazin-1-yl)phenyl)-4-((8-methyl-2,3-dihydro-1H-pyrido[2,3-b][1,4]oxazin-7-yl)amino)-2-oxo-1,2-dihydropyridine-3-carboxamide]"
7,10 to 100,"Cc1c(Nc2cc[nH]c(=O)c2C(=O)Nc2ccc(N3CCN(C#N)CC3)cc2)cnc2c1NCCO2 [Example 352, N-(4-(4-cyanopiperazin-1-yl)phenyl)-4-((8-methyl-2,3-dihydro-1H-pyrido[2,3-b][1,4]oxazin-7-yl)amino)-2-oxo-1,2-dihydropyridine-3-carboxamide]"
8,≤ 10,"Cc1c(Nc2cc[nH]c(=O)c2C(=O)Nc2ccc(N3CCN(C(=O)C(C)(C)O)CC3)cc2)cnc2c1NCCO2 [Example 357, N-(4-(4-(2-hydroxy-2-methylpropanoyl)piperazin-1-yl)phenyl)-4-((8-methyl-2,3-dihydro-1H-pyrido[2,3-b][1,4]oxazin-7-yl)amino)-2-oxo-1,2-dihydropyridine-3-carboxamide]"
9,10 to 100,"Cc1c(Nc2cc[nH]c(=O)c2C(=O)Nc2ccc(N3CCN4C(=O)CC[C@H]4C3)cc2)cnc2c1NCCO2 [Example 359, (S)-4-((8-methyl-2,3-dihydro-1H-pyrido[2,3-b][1,4]oxazin-7-yl)amino)-2-oxo-N-(4-(6-oxohexahydropyrrolo[1,2-a]pyrazin-2(1H)-yl)phenyl)-1,2-dihydropyridine-3-carboxamide]"
10,10 to 100,"Cc1c(Nc2cc[nH]c(=O)c2C(=O)Nc2ccc(N3CCN(C)CC3)c(F)c2)cnc2c1NCC(C)O2 (stereo not shown) [Example 360, 4-((3,8-dimethyl-2,3-dihydro-1H-pyrido[2,3-b][1,4]oxazin-7-yl)amino)-N-(3-fluoro-4-(4-methylpiperazin-1-yl)phenyl)-2-oxo-1,2-dihydropyridine-3-carboxamide]"
11,10 to 100,"CCN1CCN(c2ccc(NC(=O)c3c(Nc4cnc5c(c4C)NCC(C)O5)cc[nH]c3=O)cc2F)CC1 (stereo not shown) [Example 361, 4-((3,8-dimethyl-2,3-dihydro-1H-pyrido[2,3-b][1,4]oxazin-7-yl)amino)-N-(4-(4-ethylpiperazin-1-yl)-3-fluorophenyl)-2-oxo-1,2-dihydropyridine-3-carboxamide]"
12,10 to 100,"CCC(=O)N1CCN(c2ccc(NC(=O)c3c(Nc4cnc5c(c4C)NCC(C)O5)cc[nH]c3=O)cc2)CC1 (stereo not shown) [Example 362, 4-((3,8-dimethyl-2,3-dihydro-1H-pyrido[2,3-b][1,4]oxazin-7-yl)amino)-2-oxo-N-(4-(4-propionylpiperazin-1-yl)phenyl)-1,2-dihydropyridine-3-carboxamide]"
13,10 to 100,"CCOCCN1CCN(c2ccc(NC(=O)c3c(Nc4cnc5c(c4C)NCCO5)cc[nH]c3=O)cc2)CC1 [Example 368, N-(4-(4-(2-ethoxyethyl)piperazin-1-yl)phenyl)-4-((8-methyl-2,3-dihydro-1H-pyrido[2,3-b][1,4]oxazin-7-yl)amino)-2-oxo-1,2-dihydropyridine-3-carboxamide]"
14,10 to 100,"COC(C)CN1CCN(c2ccc(NC(=O)c3c(Nc4cnc5c(c4C)NCCO5)cc[nH]c3=O)cc2)CC1 (stereo not shown) [Example 369, N-(4-(4-(2-methoxypropyl)piperazin-1-yl)phenyl)-4-((8-methyl-2,3-dihydro-1H-pyrido[2,3-b][1,4]oxazin-7-yl)amino)-2-oxo-1,2-dihydropyridine-3-carboxamide]"
